# Like-named read-outs stand apart in the source and are kept apart here.
# B1: Bfd: bacterioferritin-associated ferredoxin, a [2Fe-2S] protein that binds BfrB to mobilize stored iron (protein, UniProt Q9HY80 1-73, looked up)
# Bacterioferritin-associated …: MYVCLCQGVTDNQIRDAIYEGCCSYREVREATGVGTQCGKCACLAKQVVRETLNDLQSAQPVPAFGTTAFVAA
# Legend:
# P. aeruginosa = system: P. aeruginosa; parameters: method as in PMID 11420333; settings: cited from earlier work
# PA_1081725 = settings: isolate purchased from JMI Laboratories, no MIC method given; cited from earlier work
# PA_1076058 = settings: isolate purchased from JMI Laboratories, no MIC method given; cited from earlier work
# [1] = system: EYFP-expressing P. aeruginosa PAO1 biofilms; test: Flow cell biofilm assay, CLSM imaging and COMSTAT viable biomass; format: cell-based, Pseudomonas aeruginosa; settings: 3-day old flow cell biofilms, 24 h treatment, 25× MIC
# From the text: The treated biofilms were counterstained with the cell impermeable fluorescent nucleic acid dye Sytox Red and then imaged with the aid of confocal laser scanning microscopy (CLSM).
# Image stacks were acquired with a z-step size of 0.3 μm at randomly chosen positions.
# [2] = system: EYFP-expressing P. aeruginosa PAO1 pellicles; test: Viable cells (CFU/mL) dispersed from pellicle biofilms; format: cell-based, Pseudomonas aeruginosa; settings: 2-day old pellicles, 24 h
# Experimental: Pellicle biofilms were grown as described above. Planktonic and loosely attached cells were washed (3 times) by immersing the coverslip-adhered pellicles (biofilm facing up) into a well of a 12-well plate containing 3 mL PBS, and incubating (5 min) with gentle rocking. To remove the pellicle from the coverslip, break the extracellular matrix and release cells from the biofilm, the coverslip-adhered pellicle was placed in a 50 mL conical tube containing a 2 mL suspension of zirconia beads (0.1 mm diameter, BioSpec Products), 10 mL PBS, 0.2 μg/mL alginate lyase and 0.2 μg/mL DNase. The resultant mixture was incubated at room temperature for 3 min, followed by vigorous vortexing for 4 min. After sedimentation of the zirconia beads, a 100 μL aliquot was used for serial dilution and plating on PIA plates for subsequent enumeration of viable cells (CFU/mL).
# [3] = system: Pellicles of P. aeruginosa PAO1 expressing EYFP; test: Pellicle biofilm assay, CLSM imaging and COMSTAT viable biomass; format: cell-based, Pseudomonas aeruginosa; settings: 2-day old pellicles, 24 h
# Experimental: Pellicle biofilms of EYFP-expressing P. aeruginosa PAO1 or clinical isolates were grown in PI media supplemented with 20 μM Fe. Starter cultures were diluted to OD600 = 0.001 in 4 mL media, placed in 35 × 10 mm Petri dishes and incubated statically at 30 °C for 48 h. The pellicles were transferred onto circular (1.5 cm diameter) glass coverslips by gently allowing the surface of a coverslip to contact a pellicle. The pellicle-adhered coverslip was washed in PBS and then deposited on top of 1.5 mL AB challenge media contained in a well of a 12-well microplate, with the pellicle exposed to the media. […] The coverslip-adhered pellicles were exposed to challenge media at 30 °C for 24 h, changing the challenge media every 12 h by transferring the pellicle-adhered coverslip to a new plate containing prewarmed challenge media.
# Excess fluorescent dye was washed with PBS, the coverslip was mounted on a glass slide using 5 μL SlowFade (Invitrogen Life Technologies) and the edges sealed with fingernail polish. CLSM image stacks (z-step size of 0.3 μm) were acquired with the aid of a Leica TCS SP8 microscope, as described above. Quantitative analysis was performed by determination of pellicle biomass using COMSTAT[55] and the Otsu method of automatic thresholding.[86]
# P. aeruginosa PAO1 [4] = test: Half maximal inhibitory concentration (IC50) on planktonic growth, CFU/mL enumeration; format: cell-based, Pseudomonas aeruginosa; settings: 24 h, 35 °C, 2% DMSO, this work
# Experimental: Chemicals were purchased from Fisher Scientific unless otherwise stated. P. aeruginosa PAO1 was obtained from the University of Washington Genome center.[81] The PAO1 strain expressing enhanced yellow fluorescent protein (EYFP) was prepared previously.[26] Clinical isolates of P. aeruginosa were purchased from JMI Laboratories (North Liberty, IA, USA). […] Starter cultures were grown from a single colony at 37 °C and shaking at 220 rpm for 14 h in 5 mL PI media supplemented with 10 μM Fe. Pellicle biofilms were cultured for 48 h at 30 °C in PI media supplemented with 20 μM Fe. Surface-attached biofilms were cultured in AB minimal media[82] supplemented with trace metals [0.15 μM (NH4)2MoO4, 3 μM CuSO4, 2 μM Co(NO3)2, 9.4 μM Na2B4O7, and 7.6 μM ZnSO4], 3 mM glucose and 15 μM Fe. Iron supplementation was carried out by addition of a small volume of filter-sterilized 10 mM (NH4)2Fe(SO4)2 (pH ∼ 2.0) solution. […]; IC50 values (Table 1, Figure S1) were determined as reported previously[25] with small modifications. In brief: precultures of P. aeruginosa PAO1 (5 mL) were grown in LB media for 13 h at 37 °C and 220 rpm in 50 mL conical tubes (VWR International, PA). The cells were centrifuged for 5 min at 4000 rpm and 4 °C, washed two times and then diluted in buffer (100 mM KH2PO4 and 15 mM (NH4)2SO4) to an optical density at 600 nm (OD600) of 0.1. A small volume of compound stock solution (10 mM) was transferred to a microcentrifuge tube, initially diluted with DMSO to 20 μL, and then diluted to 1 mL with preculture cell suspension in defined media with OD600 = 0.0001, so the final DMSO concentration is 2%. The resultant cell suspension (200 μL) was transferred to a clear-bottom polystyrene 96-well plate (VWR) covered with a lid and incubated at 35 °C and 205 cpm for 24 h in a Synergy H1 microplate reader (Biotek Instruments Inc., Vermont). The cell cultures were serially diluted and then plated on PI Agar (PIA; BD biosciences) plates for enumeration of viable cells (CFU/mL). The % growth was calculated from the ratio CFU/mL(treated)/CFU/mL(untreated control). To calculate the IC50 values, the % growth was plotted as a function of compound concentration, expressed as log[compound] (μM), and fitted to the 4-parameter logistic model describing the sigmoid-shaped response pattern (eq 1),[84] where b is the slope factor, max is the upper asymptote (plateau), and min is the lower asymptote. Values are the average and standard deviation from three independent experiments. [drawing 1] 1
# BfrB [5] = target: T1, BfrB (Pseudomonas aeruginosa, UniProt Q9HY79); test: Dissociation constant (Kd) for BfrB by fluorescence polarization; format: binding
# T1 sequence (Q9HY79 whole entry): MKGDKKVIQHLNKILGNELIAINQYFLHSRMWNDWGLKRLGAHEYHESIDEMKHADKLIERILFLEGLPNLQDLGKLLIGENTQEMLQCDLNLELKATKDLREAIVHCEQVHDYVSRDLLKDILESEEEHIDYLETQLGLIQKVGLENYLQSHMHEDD
# Experimental: Dissociation constants for the interaction between BfrB and 3-aminoisoindoline-1,3-dione derivatives (Table 1, Figure S1) were measured in vitro with a fluorescence polarization method based on the intrinsic fluorescence of the isoindoline-1,3-dione moiety, as described previously.[25]
# 25 (A) and KM-5-66 (B) for BfrB, evaluated by fluorescence polarization, as described previously1.
# Values were obtained in 100 mM potassium phosphate buffer (pH 7.6) containing 1 mM TCEP and
# 0.5% DMSO. The initial concentrations of KM-5-25 and KM-5-66 were 5 µM. The Kd values are the
# average and standard deviation from three independent measurements. […]
# Aqueous solubility = format: physicochemical; settings: for solubility: PBS buffer, read-out: solubility in PBS buffer; for aqueous solubility (in words): aqueous solution
# P. aeruginosa PAO1 [6] = system: P. aeruginosa PAO1; parameters: method as in PMID 31038945; settings: planktonic growth, cited from earlier work
# BfrB [7] = target: T1, BfrB; settings: Bfd binding sites on BfrB equivalent and independent; cited from earlier work
# [8] = Pseudomonas aeruginosa, PAO1, defined media, read-out: IC50
molecule,measurement,setting,value
O=C(O)c1cn(C2CC2)c2cc(N3CCNCC3)c(F)cc2c1=O [ciprofloxacin],MIC,P. aeruginosa; reported MIC converted to μM,0.75 µM
same,MIC,P. aeruginosa; reported MIC,0.25 µg/mL
same,MIC,PA_1081725,16 µg/mL
same,MIC,PA_1076058,> 16 µg/mL
colistin,"% survival (viable biomass, COMSTAT)",[1],~20%
same,"% cell survival, CFU/mL(after treatment)/CFU/mL(pretreatment)",[2]; 25× MIC,~10%
same,"% cell survival, CFU/mL(after treatment)/CFU/mL(pretreatment)",[2]; 50× MIC,~1%
same,fluorescence signal from viable cells expressing EYFP,[3]; 50× MIC,undetectable
same,susceptibility of pellicle biofilms (CLSM),[3]; concentrations above 10× MIC,susceptible
same,MIC,P. aeruginosa; reported MIC converted to μM,0.79 µM
same,MIC,P. aeruginosa; reported MIC,1 µg/mL
NCC[C@H](O)C(=O)N[C@@H]1C[C@H](N)[C@@H](O[C@H]2O[C@H](CN)[C@@H](O)[C@H](O)[C@H]2O)[C@H](O)[C@H]1O[C@H]1O[C@H](CO)[C@@H](O)[C@H](N)[C@H]1O [Amikacin],MIC,PA_1081725,16 µg/mL
same,MIC,PA_1076058,4 µg/mL
"O=C1NC(=O)c2c(NCc3cc(O)cc(Cl)c3)cccc21 [KM-5-50, 4-((5-Chloro-3-hydroxybenzyl)amino)isoindoline-1,3-dione]",IC50,P. aeruginosa PAO1 [4]; [8],82 ± 16 µM
same,Kd,BfrB [5],11 ± 2 µM
"O=C1NC(=O)c2c(NCc3c(O)cccc3Cl)cccc21 [KM-5-29, 4-((6-Chloro-2-hydroxybenzyl)amino)isoindoline-1,3-dione]",solubility,Aqueous solubility,< 30 µM
same,aqueous solubility (in words),Aqueous solubility,poorly soluble in aqueous solution
same,Kd,BfrB [5],6 ± 0.5 µM
CNC(C)C1CCC(N)C(OC2C(N)CC(N)C(OC3OCC(C)(O)C(NC)C3O)C2O)O1 (stereo not shown) [Gentamicin],MIC,PA_1081725,4 µg/mL
same,MIC,PA_1076058,> 16 µg/mL
"O=C1NC(=O)c2c(NCc3cccc(Cl)c3O)cccc21 [KM-5-30, 4-((3-Chloro-2-hydroxybenzyl)amino)isoindoline-1,3-dione]",IC50,P. aeruginosa PAO1 [4]; [8],156 ± 30 µM
same,Kd,BfrB [5],6 ± 1 µM
"O=C1NC(=O)c2c(NCCCc3cc(F)ccc3O)cccc21 [JAG-5-6, 4-((3-(5-fluoro-2-hydroxyphenyl)propyl)amino)isoindoline-1,3-dione]",IC50,P. aeruginosa PAO1 [4]; [8],54 ± 9 µM
same,Kd,BfrB [5],0.43 ± 0.07 µM
C[C@@H](O)[C@H]1C(=O)N2C(C(=O)O)=C(S[C@@H]3CN[C@H](C(=O)N(C)C)C3)[C@H](C)[C@H]12 [Meropenem],MIC,PA_1081725,32 µg/mL
same,MIC,PA_1076058,4 µg/mL
O=C1NC(=O)c2c(NCc3ccccc3O)cccc21 [Analog 11],IC50,P. aeruginosa PAO1 [6]; read-out: IC50,258 ± 23 µM
"Nc1cccc2c1C(=O)NC2=O [Analog 8, 4-aminoisoindoline-1,3-dione]",IC50,P. aeruginosa PAO1 [6],not active
O=C1NC(=O)c2c(NCCCc3ccccc3O)cccc21 [KM-5-28],IC50,P. aeruginosa PAO1 [4]; [8],96 ± 1 µM
same,Kd,BfrB [5],1.4 ± 0.2 µM
"O=C1NC(=O)c2c(NCc3cc(F)ccc3O)cccc21 [JAG-5-7, 4-((5-Fluoro-2-hydroxybenzyl)amino)isoindoline-1,3-dione]",IC50,P. aeruginosa PAO1 [4]; [8],128 ± 26 µM
same,Kd,BfrB [5],7 ± 2 µM
O=C1NC(=O)c2c(NCCCc3cc(O)cc(O)c3)cccc21 [KM-5-57],IC50,P. aeruginosa PAO1 [4]; defined media,not active at 200 μM
same,Kd,BfrB [5],2.5 ± 0.4 µM
NC[C@H]1O[C@H](O[C@H]2[C@H](O)[C@@H](O[C@H]3O[C@H](CO)[C@@H](O)[C@H](N)[C@H]3O)[C@H](N)C[C@@H]2N)[C@H](N)C[C@@H]1O [tobramycin],"% survival (viable biomass, COMSTAT)",[1],~70%
same,"% cell survival, CFU/mL(after treatment)/CFU/mL(pretreatment)",[2]; 25× MIC,~70%
same,"% cell survival, CFU/mL(after treatment)/CFU/mL(pretreatment)",[2]; 50× MIC,~70%
same,tolerance of pellicle biofilms (CLSM),[3]; 25× and 50× the MIC,tolerant
same,MIC,P. aeruginosa; reported MIC converted to μM,1.07 µM
same,MIC,P. aeruginosa; reported MIC,0.5 µg/mL
same,MIC,PA_1081725,16 µg/mL
same,MIC,PA_1076058,> 16 µg/mL
CC(C)(O/N=C(\C(=O)N[C@@H]1C(=O)N2C(C(=O)[O-])=C(C[n+]3ccccc3)CS[C@H]12)c1csc(N)n1)C(=O)O [Ceftazidime],MIC,PA_1081725,> 32 µg/mL
same,MIC,PA_1076058,> 32 µg/mL
C[C@H]1c2cccc(O)c2C(=O)C2=C(O)[C@]3(O)C(=O)C(C(N)=O)=C(O)[C@@H](N(C)C)[C@@H]3[C@@H](O)[C@@H]21 [Doxycycline],MIC,PA_1081725,4 µg/mL
same,MIC,PA_1076058,> 8 µg/mL
O=C1NC(=O)c2c(NCCCc3cccc(O)c3)cccc21 [Analog 16],IC50,P. aeruginosa PAO1 [6]; read-out: IC50,121 ± 4 µM
C[C@H]1[C@H](NC(=O)/C(=N\OC(C)(C)C(=O)O)c2csc(N)n2)C(=O)N1S(=O)(=O)O [Aztreonam],MIC,PA_1081725,> 16 µg/mL
same,MIC,PA_1076058,16 µg/mL
O=C1NC(=O)c2c(NCCCc3cc(Cl)ccc3O)cccc21 [KM-5-54],solubility,Aqueous solubility,< 30 µM
same,aqueous solubility (in words),Aqueous solubility,poor water solubility
same,Kd,BfrB [5],0.22 ± 0.04 µM
O=C1NC(=O)c2c(NCc3cccc(O)c3)cccc21 [BN-XIV-53],IC50,P. aeruginosa PAO1 [4]; defined media,not active at 120 μM
same,Kd,BfrB [5],21 ± 3 µM
B1,Kd,BfrB [7],3 µM

# From paper PMC7802073, “Small Molecule Inhibitors of the Bacterioferritin (BfrB)–Ferredoxin (Bfd) Complex Kill Biofilm-Embedded Pseudomonas aeruginosa Cells” (ACS Infectious Diseases, 2020)
